These results are taken from ChEMBL document CHEMBL3400066, “2-(Isopropylamino)thieno[3,2-d]pyrimidin-4(3H)-one derivatives as selective phosphodiesterase 7 inhibitors with potent in vivo efficacy” (Bioorg Med Chem Lett, 2015).

The structures appear in SMILES notation. In brackets after ≈: the same amount, converted by molar mass.

The subject of data set [1] is Mus musculus. The data set is described as follows: Antiinflammatory activity in ICR mouse ear edema model assessed as inhibition of TPA-induced edema at 0.3 % W/V per ear administered topically 30 mins before TPA challenge. Type of data set: functional.
Data set [2] is described as follows: Solubility of the compound in phosphate buffer at pH 6.8. Type of data set: physicochemical.
Data set [3] relates to Mus musculus. The data set is described as follows: Antiinflammatory activity in ICR mouse ear edema model assessed as inhibition of TPA-induced edema at 1% W/V per ear administered topically 30 mins before TPA challenge. The data set is classed as functional.
The target in data set [4] is 3',5'-cyclic-AMP phosphodiesterase 4B (Homo sapiens, UniProt Q07343). The data set is described as follows: Inhibition of human PDE4B expressed in insect cells assessed as inhibition of [3H]cAMP to [3H]AMP hydrolysis after 30 mins by scintillation counting.
3',5'-cyclic-AMP phosphodiesterase 4B, sequence (Q07343 whole entry): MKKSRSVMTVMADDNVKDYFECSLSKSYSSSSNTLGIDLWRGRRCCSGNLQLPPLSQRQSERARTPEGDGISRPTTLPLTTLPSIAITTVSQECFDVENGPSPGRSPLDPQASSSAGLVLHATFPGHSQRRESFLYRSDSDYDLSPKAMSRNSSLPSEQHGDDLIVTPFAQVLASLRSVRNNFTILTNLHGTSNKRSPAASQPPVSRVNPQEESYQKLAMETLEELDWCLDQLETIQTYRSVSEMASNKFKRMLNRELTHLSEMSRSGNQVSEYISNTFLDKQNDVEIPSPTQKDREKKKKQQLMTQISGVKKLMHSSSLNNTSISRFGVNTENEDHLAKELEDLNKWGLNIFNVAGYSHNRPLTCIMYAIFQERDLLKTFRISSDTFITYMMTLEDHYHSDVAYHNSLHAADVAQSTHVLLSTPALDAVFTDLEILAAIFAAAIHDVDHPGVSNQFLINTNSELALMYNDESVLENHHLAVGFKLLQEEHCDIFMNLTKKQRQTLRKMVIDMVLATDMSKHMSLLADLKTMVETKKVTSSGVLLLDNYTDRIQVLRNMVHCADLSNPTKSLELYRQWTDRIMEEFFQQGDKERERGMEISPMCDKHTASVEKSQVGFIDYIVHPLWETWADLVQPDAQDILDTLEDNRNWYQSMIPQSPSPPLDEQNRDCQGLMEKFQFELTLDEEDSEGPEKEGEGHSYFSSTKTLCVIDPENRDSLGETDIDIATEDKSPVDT
In the next data set the test system is Lymphocyte. The data set is described as follows: Inhibition of IL2 production in activated mouse lymphocytes after 3 hrs by ELISA. Type of data set: functional, cell-based.
Data set [5] concerns the target cGMP-inhibited 3',5'-cyclic phosphodiesterase 3A (Homo sapiens, UniProt Q14432). The data set is described as follows: Inhibition of PDE3A (unknown origin).
For data set [6], the target named is cGMP-specific 3',5'-cyclic phosphodiesterase (Homo sapiens, UniProt O76074). The data set is described as follows: Inhibition of PDE5A (unknown origin).
Data set [7] addresses High affinity 3',5'-cyclic-AMP phosphodiesterase 7A (Homo sapiens, UniProt Q13946). The data set is described as follows: Inhibition of human PDE7A expressed in insect cells assessed as inhibition of [3H]cAMP to [3H]AMP hydrolysis after 30 mins by scintillation counting.

High affinity 3',5'-cyclic-AMP phosphodiesterase 7A, sequence (Q13946 whole entry): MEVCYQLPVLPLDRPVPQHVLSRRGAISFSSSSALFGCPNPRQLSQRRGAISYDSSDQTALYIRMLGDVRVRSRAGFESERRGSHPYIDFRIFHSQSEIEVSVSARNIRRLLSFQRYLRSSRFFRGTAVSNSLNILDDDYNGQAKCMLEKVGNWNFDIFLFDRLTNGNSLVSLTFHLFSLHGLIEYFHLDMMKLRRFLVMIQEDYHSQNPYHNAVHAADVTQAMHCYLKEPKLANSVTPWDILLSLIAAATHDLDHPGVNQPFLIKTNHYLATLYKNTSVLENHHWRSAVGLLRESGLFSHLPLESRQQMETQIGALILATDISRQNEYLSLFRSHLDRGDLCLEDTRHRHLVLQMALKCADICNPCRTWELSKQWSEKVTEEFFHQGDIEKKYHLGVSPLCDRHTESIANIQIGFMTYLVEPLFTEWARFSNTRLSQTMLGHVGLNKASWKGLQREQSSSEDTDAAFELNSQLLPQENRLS
cGMP-inhibited 3',5'-cyclic phosphodiesterase 3A, sequence (Q14432 whole entry): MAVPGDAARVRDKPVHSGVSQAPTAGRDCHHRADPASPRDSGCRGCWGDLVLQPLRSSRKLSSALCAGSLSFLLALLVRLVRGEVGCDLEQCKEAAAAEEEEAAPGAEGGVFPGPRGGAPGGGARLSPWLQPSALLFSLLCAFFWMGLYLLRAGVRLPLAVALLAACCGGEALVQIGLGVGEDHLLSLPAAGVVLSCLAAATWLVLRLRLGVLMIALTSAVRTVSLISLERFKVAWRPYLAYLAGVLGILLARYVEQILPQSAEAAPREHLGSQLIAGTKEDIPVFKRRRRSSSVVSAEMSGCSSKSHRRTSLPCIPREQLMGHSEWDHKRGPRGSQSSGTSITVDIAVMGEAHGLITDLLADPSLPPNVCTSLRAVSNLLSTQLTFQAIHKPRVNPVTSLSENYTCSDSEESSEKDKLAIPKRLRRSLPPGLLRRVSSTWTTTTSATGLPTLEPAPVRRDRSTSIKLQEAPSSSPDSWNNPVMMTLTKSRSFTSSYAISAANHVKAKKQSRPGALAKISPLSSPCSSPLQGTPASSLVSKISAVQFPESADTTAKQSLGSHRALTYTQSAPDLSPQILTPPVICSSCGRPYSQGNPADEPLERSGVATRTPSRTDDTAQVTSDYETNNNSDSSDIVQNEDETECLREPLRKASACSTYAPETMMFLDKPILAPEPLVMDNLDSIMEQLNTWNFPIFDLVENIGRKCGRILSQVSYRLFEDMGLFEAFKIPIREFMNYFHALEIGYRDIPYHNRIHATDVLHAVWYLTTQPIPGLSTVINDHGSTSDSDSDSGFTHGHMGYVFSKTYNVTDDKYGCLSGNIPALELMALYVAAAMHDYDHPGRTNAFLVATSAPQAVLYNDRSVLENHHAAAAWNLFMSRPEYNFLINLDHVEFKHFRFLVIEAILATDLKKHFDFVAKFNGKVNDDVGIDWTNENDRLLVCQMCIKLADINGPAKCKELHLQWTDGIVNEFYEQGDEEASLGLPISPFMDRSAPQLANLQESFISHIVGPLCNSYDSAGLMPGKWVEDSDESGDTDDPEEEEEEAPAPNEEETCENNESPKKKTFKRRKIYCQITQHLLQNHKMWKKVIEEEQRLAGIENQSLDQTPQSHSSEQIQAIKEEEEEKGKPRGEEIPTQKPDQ

One may read the solubility as the concentration that dissolves in the medium under given conditions. What is called IC50 is the concentration at which inhibition is half-maximal. On to `CCn1c(NC(C)C)nc2c(C3CCN(C(=O)c4cccc(C)n4)C3)csc2c1=O` (stereo not given), for which the “inhibition (INH)” value is 65% with Mus musculus [1] and 96% in the data set with Mus musculus [3]. In addition, the solubility in data set [2] is 0.15 mg/mL (≈ 352 µM). Besides, the half-inhibitory concentration (IC50) in data set [4] came to 0.046 µM; with Lymphocyte it was 0.15 µM; in data set [5], 1.6 µM; in data set [6], 2.3 µM; in data set [7], 0.0033 µM.
In data set [2], `CCNc1nc2ccsc2c(=O)n1CC` came in with a solubility of 0.24 mg/mL (≈ 1070 µM). The IC50 in data set [7] was found to be 2.9 µM.
On the same counts, the results for `CCCNc1nc2ccsc2c(=O)n1CC` are 0.069 mg/mL (≈ 291 µM) and 1.4 µM.
`CCn1c(NC(C)C)nc2ccsc2c1=O`: in data set [2], the solubility was determined as 0.19 mg/mL (≈ 801 µM).
Consider `CCn1c(CC(C)C)nc2ccsc2c1=O`, for which the IC50 in data set [7] is 4.7 µM.
In turn, `CCn1c(NC(C)(C)C)nc2ccsc2c1=O` registered a solubility in data set [2] of 0.0037 mg/mL (≈ 14.7 µM). The IC50 in data set [7] was 1.5 µM.
On the same counts, the results for `CCn1c(NC2CC2)nc2ccsc2c1=O` are 0.43 mg/mL (≈ 1830 µM) and 2.6 µM.
As to `CCn1c(NC2CCC2)nc2ccsc2c1=O`, in data set [2], the solubility amounted to 0.0063 mg/mL (≈ 25.3 µM). For the same compound, the values for the IC50 in data set [4] and in data set [7] were 4.8 µM and 0.3 µM, respectively.
On the same counts, the results for `CCn1c(NC2CCOCC2)nc2ccsc2c1=O` are 0.037 mg/mL (≈ 132 µM), 12 µM and 0.43 µM.
As to `CCn1c(N[C@H]2CC[C@H](O)CC2)nc2ccsc2c1=O`, in data set [2], the concentration in solution (solubility) was 0.074 mg/mL (≈ 252 µM). Besides, the IC50 in data set [4] came out at 24 µM; in data set [7], 2.3 µM.
As for `CCn1c(N[C@H]2CC[C@H](C(=O)OC)CC2)nc2ccsc2c1=O`, the concentration in solution in data set [2] (solubility) came to 0.013 mg/mL (≈ 38.8 µM). The 50% inhibitory concentration (IC50) in data set [7] was determined as 2.1 µM.
The like results for `CCn1c(N[C@H]2CC[C@H](C(=O)O)CC2)nc2ccsc2c1=O` were, in that order, 0.45 mg/mL (≈ 1400 µM) and 1.3 µM.
In data set [2], `CCn1c(NC(C)C)nc2c(-c3cccnc3)csc2c1=O` came in with a solubility of 0.0058 mg/mL (≈ 18.4 µM). In addition, the IC50 in data set [4] is 0.52 µM; in data set [7], 0.0044 µM.
On the same counts, the results for `CCn1c(NC(C)C)nc2c(-c3ccco3)csc2c1=O` are 0.0001 mg/mL (≈ 0.33 µM), 0.55 µM and 0.012 µM.
On the same counts, the results for `CCn1c(NC(C)C)nc2c(-c3sc(C)nc3C)csc2c1=O` are 0.0045 mg/mL (≈ 12.9 µM), 0.2 µM and 0.0064 µM.
On the same counts, the results for `CCn1c(NC(C)C)nc2c(-c3ccnc(OC)c3)csc2c1=O` are 0.0024 mg/mL (≈ 6.97 µM), 0.42 µM and 0.0046 µM.
In data set [2], `CCn1c(NC(C)C)nc2c(-c3cncnc3)csc2c1=O` displayed a solubility of 0.018 mg/mL (≈ 57.1 µM). For the same compound, the results for the IC50 in data set [4] and in data set [7] were 1.1 µM and 0.0076 µM, respectively.
The like results for `CCn1c(NC(C)C)nc2c(C3CCNCC3)csc2c1=O` were, in that order, 1.1 mg/mL (≈ 3430 µM), 14 µM and 0.19 µM.
Take `CCn1c(NC(C)C)nc2c(C3CCN(C(C)C)CC3)csc2c1=O`: the solubility in data set [2] was 0.35 mg/mL (≈ 965 µM). Besides, the concentration for half-maximal inhibition (IC50) in data set [4] is 25 µM; with Lymphocyte it was greater than 3 µM; in data set [7] it was 0.17 µM.
On to `CCn1c(NC(C)C)nc2c(C3CCN(c4ccccn4)CC3)csc2c1=O`, for which the values for the IC50 (in data set [4]; in the data set on Lymphocyte; in data set [7]) were 0.44 µM, greater than 3 µM and 0.0068 µM, respectively.
The compound `CCn1c(NC(C)C)nc2c(C3CCN(C(C)=O)CC3)csc2c1=O` came in with a solubility in data set [2] of 0.074 mg/mL (≈ 204 µM). The IC50 in data set [4] worked out at 1.5 µM; in the data set on Lymphocyte, 2 µM; in data set [7], 0.02 µM.
In turn, `CCn1c(NC(C)C)nc2c(C3CCCN(C(C)=O)C3)csc2c1=O` (stereo not given) yielded a solubility in data set [2] of 0.23 mg/mL (≈ 634 µM). Moreover, the IC50 in data set [4] was 0.56 µM; with Lymphocyte, 0.75 µM; in data set [7], 0.0051 µM.
As to `CCn1c(NC(C)C)nc2c(C3CCN(C(C)=O)C3)csc2c1=O` (stereo not given), the concentration in solution in data set [2] (solubility) was 0.47 mg/mL (≈ 1350 µM). For the same compound, the IC50 in data set [4] was 1.9 µM; in data set [7] it was 0.015 µM.
As for `CCn1c(NC(C)C)nc2c(C3CCN(C(=O)C(C)C)C3)csc2c1=O` (stereo not given), the solubility in data set [2] was 0.13 mg/mL (≈ 345 µM). Moreover, the IC50 is 1.4 µM in data set [4], greater than 1 µM in the data set with Lymphocyte and 0.0084 µM in data set [7].
On the same counts, the results for `CCn1c(NC(C)C)nc2c(C3CCN(C(=O)CC(C)C)C3)csc2c1=O` (stereo not given) are 0.015 mg/mL (≈ 38.4 µM), 2.3 µM, 1.8 µM and 0.0081 µM.
The like results for `CCn1c(NC(C)C)nc2c(C3CCN(C(=O)c4ccccc4)C3)csc2c1=O` (stereo not given) were, in that order, 0.021 mg/mL (≈ 51.2 µM), 0.38 µM, 0.76 µM and 0.0015 µM.
Regarding `CCn1c(NC(C)C)nc2c(C3CCN(C(=O)c4ccccn4)C3)csc2c1=O` (stereo not given), the entries for the “inhibition (INH)” value in the data set with Mus musculus [1] and in the data set on Mus musculus [3] were 45% and 72%, respectively. In data set [2], this compound displayed a solubility of 0.038 mg/mL (≈ 92.3 µM). For the same compound, the concentration for half-maximal inhibition (IC50) in data set [4] amounted to 0.2 µM; with Lymphocyte it was 0.29 µM; in data set [5], 3.3 µM; in data set [6] it was 3 µM; in data set [7] it was 0.0027 µM.
In the case of `CCn1c(NC(C)C)nc2c(C3CCN(C(=O)c4ncccc4C)C3)csc2c1=O` (stereo not given), the entries for the “inhibition (INH)” value with Mus musculus [1] and with Mus musculus [3] were 62% and 77%, respectively. Besides, the concentration in solution in data set [2] (solubility) was 0.064 mg/mL (≈ 150 µM). Further, the IC50 is 0.14 µM in data set [4]; 0.27 µM in the data set with Lymphocyte; 1.3 µM in data set [5]; 3.1 µM in data set [6]; 0.0014 µM in data set [7].
